Source: ChEMBL document CHEMBL1201862, “PubChem BioAssay data set” (2004)
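Dose response: 5 concentrations. Exposure: 48 h. Format: 96-well plates. Endpoint: linear interpolation; highest concentration if not reached. Abbreviation: GI50, concentration required for 50% inhibition of growth.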 Activity calls are given as the source filed them. No stated cut-off is given here; in the data, active = GI50 up to about 1.1 µM and inactive = higher.

Legend:
Assay in all cases: NCI tumour cell line growth inhibition, 48 h
A549 = test system: A549
CAKI-1 = test system: CAKI-1
K562 = test system: K562
KM-20L2 = test system: KM-20L2
MOLT-4 = test system: MOLT-4
NCI-H522 = test system: NCI-H522
OVCAR-4 = test system: OVCAR-4
SF-295 = test system: SF-295
SK-MEL-5 = test system: SK-MEL-5
SN12C = test system: SN12C
SNB-78 = test system: SNB-78
SW-620 = test system: SW-620
UACC-257 = test system: UACC-257
UO-31 = test system: UO-31
HCC 2998 = test system: HCC 2998
Hs-578T = test system: Hs-578T
MDA-MB-231 = test system: MDA-MB-231
PC-3 = test system: PC-3
RPMI-8226 = test system: RPMI-8226
SNB-75 = test system: SNB-75

Structure (SMILES) | GI50 (A549) | GI50 (CAKI-1) | GI50 (K562) | GI50 (KM-20L2) | GI50 (MOLT-4) | GI50 (NCI-H522) | GI50 (OVCAR-4) | GI50 (SF-295) | GI50 (SK-MEL-5) | GI50 (SN12C) | GI50 (SNB-78) | GI50 (SW-620) | GI50 (UACC-257) | GI50 (UO-31) | GI50 (HCC 2998) | GI50 (Hs-578T) | GI50 (MDA-MB-231) | GI50 (PC-3) | GI50 (RPMI-8226) | GI50 (SNB-75)
Cc1cc(C)c(C(=O)O)c(SSc2cc(C)cc(C)c2C(=O)O)c1 | > 100 µM (inactive) | > 100 µM (inactive) | > 100 µM (inactive) | > 100 µM (inactive) | > 100 µM (inactive) | > 100 µM (inactive) | > 100 µM (inactive) | > 100 µM (inactive) | > 100 µM (inactive) | > 100 µM (inactive) | > 100 µM (inactive) | > 100 µM (inactive) | > 100 µM (inactive) | > 100 µM (inactive) | – | – | – | – | – | –
N#CC1=C(N)N(c2ccccc2)C(c2ccccc2)C1(C#N)C#N (centres undefined) | 17.8 µM (inactive) | 20.9 µM (inactive) | 6.05 µM (inactive) | – | 12.3 µM (inactive) | 16.3 µM (inactive) | 19.6 µM (inactive) | 18.4 µM (inactive) | 13.5 µM (inactive) | 18.8 µM (inactive) | – | 19.1 µM (inactive) | 19.1 µM (inactive) | 18.1 µM (inactive) | 16.4 µM (inactive) | 30 µM (inactive) | 14.3 µM (inactive) | 17.7 µM (inactive) | 14.8 µM (inactive) | 15.3 µM (inactive)
CC(=O)O[C@@]12CO[C@@H]1C[C@@H](O)[C@@]1(C)C(=O)[C@H](O)C3=C(C)[C@@H](OC(=O)[C@H](O)[C@@H](NC(=O)c4ccccc4)c4ccccc4)C[C@@](O)([C@@H](OC(=O)c4ccccc4)C12)C3(C)C (some centres undefined) | 0.083 µM (active) | 1.82 µM (inactive) | 0.0156 µM (active) | 0.0134 µM (active) | < 0.01 µM (active) | < 0.0122 µM (active) | 24.7 µM (inactive) | 0.268 µM (active) | – | 0.0184 µM (active) | – | < 0.01 µM (active) | 0.0217 µM (active) | 4.51 µM (inactive) | 0.0212 µM (active) | < 0.01 µM (active) | 0.0408 µM (active) | 0.016 µM (active) | < 0.01 µM (active) | < 0.01 µM (active)
O=C(CC1S/C(=N\c2ccccc2Cl)NC1=O)Nc1ccc(Cl)cc1 (centres undefined) | > 100 µM (inactive) | > 100 µM (inactive) | 79.1 µM (inactive) | > 100 µM (inactive) | – | – | 38.9 µM (inactive) | > 100 µM (inactive) | > 100 µM (inactive) | > 100 µM (inactive) | > 100 µM (inactive) | 10.6 µM (inactive) | > 100 µM (inactive) | > 100 µM (inactive) | > 100 µM (inactive) | – | – | – | – | –
CN(C)CCS/C(=N\c1ccccc1)n1cccc1 | > 100 µM (inactive) | > 100 µM (inactive) | 53.6 µM (inactive) | 32.1 µM (inactive) | 49.9 µM (inactive) | 33.9 µM (inactive) | > 100 µM (inactive) | > 100 µM (inactive) | 35.9 µM (inactive) | 54.1 µM (inactive) | 22.2 µM (inactive) | > 100 µM (inactive) | 42.9 µM (inactive) | 32.2 µM (inactive) | – | – | – | – | > 100 µM (inactive) | 27.6 µM (inactive)
CC1(OCc2ccccc2)C(=O)N2C1NCC2(C)C (centres undefined) | > 100 µM (inactive) | – | > 100 µM (inactive) | > 100 µM (inactive) | > 100 µM (inactive) | – | > 100 µM (inactive) | > 100 µM (inactive) | > 100 µM (inactive) | > 100 µM (inactive) | – | > 100 µM (inactive) | > 100 µM (inactive) | 86.5 µM (inactive) | > 100 µM (inactive) | – | – | – | > 100 µM (inactive) | > 100 µM (inactive)
O=C(NCCCCCCNC(=O)NC1OCC(O)C(O)C1O)NC1OCC(O)C(O)C1O (centres undefined) | > 100 µM (inactive) | > 100 µM (inactive) | > 100 µM (inactive) | – | > 100 µM (inactive) | > 100 µM (inactive) | > 100 µM (inactive) | > 100 µM (inactive) | > 100 µM (inactive) | > 100 µM (inactive) | > 100 µM (inactive) | > 100 µM (inactive) | – | – | – | – | – | – | > 100 µM (inactive) | 64.9 µM (inactive)
O=C(CC(=O)C(=O)Nc1ccccc1)CC(c1ccccc1)c1c(O)c2ccccc2oc1=O (centres undefined) | > 100 µM (inactive) | > 100 µM (inactive) | > 100 µM (inactive) | > 100 µM (inactive) | > 100 µM (inactive) | > 100 µM (inactive) | – | > 100 µM (inactive) | > 100 µM (inactive) | – | – | > 100 µM (inactive) | – | > 100 µM (inactive) | > 100 µM (inactive) | – | – | – | – | > 100 µM (inactive)
Cn1cnc(CCc2ccccc2)n1 | > 100 µM (inactive) | > 100 µM (inactive) | > 100 µM (inactive) | > 100 µM (inactive) | > 100 µM (inactive) | > 100 µM (inactive) | > 100 µM (inactive) | > 100 µM (inactive) | > 100 µM (inactive) | > 100 µM (inactive) | > 100 µM (inactive) | > 100 µM (inactive) | > 100 µM (inactive) | > 100 µM (inactive) | – | – | – | – | > 100 µM (inactive) | > 100 µM (inactive)
CC(C)c1cc(C(C)C)c(S(=O)(=O)NN)c(C(C)C)c1 | > 100 µM (inactive) | > 100 µM (inactive) | > 100 µM (inactive) | > 100 µM (inactive) | – | – | > 100 µM (inactive) | > 100 µM (inactive) | > 100 µM (inactive) | > 100 µM (inactive) | > 100 µM (inactive) | > 100 µM (inactive) | > 100 µM (inactive) | – | – | – | – | – | > 100 µM (inactive) | > 100 µM (inactive)
CCOC(=O)c1c2ccc(/C=C/c3ccccc3)ccc-2c(C(=O)OCC)c1N | > 100 µM (inactive) | > 100 µM (inactive) | > 100 µM (inactive) | > 100 µM (inactive) | > 100 µM (inactive) | > 100 µM (inactive) | 34.1 µM (inactive) | > 100 µM (inactive) | > 100 µM (inactive) | – | – | > 100 µM (inactive) | > 100 µM (inactive) | > 100 µM (inactive) | 95.5 µM (inactive) | – | – | – | – | 36.7 µM (inactive)
COC(=O)CCC1=NCC(C)(C)O1 | > 10 µM (inactive) | > 10 µM (inactive) | 0.182 µM (active) | – | > 10 µM (inactive) | > 10 µM (inactive) | > 10 µM (inactive) | > 10 µM (inactive) | > 10 µM (inactive) | > 10 µM (inactive) | – | > 10 µM (inactive) | > 10 µM (inactive) | > 10 µM (inactive) | > 10 µM (inactive) | > 10 µM (inactive) | > 10 µM (inactive) | > 10 µM (inactive) | > 10 µM (inactive) | 2.79 µM (inactive)
COc1nc(NC2OC(COC(C)=O)C(OC(C)=O)C(OC(C)=O)C2OC(C)=O)c(/N=C/C=N/c2c(NC3OC(COC(C)=O)C(OC(C)=O)C(OC(C)=O)C3OC(C)=O)nc(OC)[nH]c2=O)c(=O)[nH]1 (centres undefined) | > 100 µM (inactive) | > 100 µM (inactive) | > 100 µM (inactive) | > 100 µM (inactive) | > 100 µM (inactive) | > 100 µM (inactive) | > 100 µM (inactive) | > 100 µM (inactive) | > 100 µM (inactive) | > 100 µM (inactive) | – | > 100 µM (inactive) | > 100 µM (inactive) | > 100 µM (inactive) | > 100 µM (inactive) | – | – | – | > 100 µM (inactive) | > 100 µM (inactive)
N#Cc1ccc(Sc2nc3ccccc3[nH]2)cc1 | 78.2 µM (inactive) | > 100 µM (inactive) | > 100 µM (inactive) | – | 94 µM (inactive) | > 100 µM (inactive) | > 100 µM (inactive) | > 100 µM (inactive) | 34.4 µM (inactive) | > 100 µM (inactive) | > 100 µM (inactive) | > 100 µM (inactive) | > 100 µM (inactive) | > 100 µM (inactive) | – | – | – | – | – | –
C[N+](C)(C)CC1CCC/C1=N/O (centres undefined) | > 100 µM (inactive) | – | 23.7 µM (inactive) | 17.8 µM (inactive) | > 100 µM (inactive) | > 100 µM (inactive) | > 100 µM (inactive) | > 100 µM (inactive) | > 100 µM (inactive) | > 100 µM (inactive) | > 100 µM (inactive) | 2.62 µM (inactive) | 43 µM (inactive) | > 100 µM (inactive) | > 100 µM (inactive) | – | – | – | 25.7 µM (inactive) | > 100 µM (inactive)
CC(=O)NNc1nc(C)c(C(=O)NNC(=O)C(=O)Nc2c(Cl)cc([N+](=O)[O-])cc2Cl)s1 | 31.6 µM (inactive) | – | 36 µM (inactive) | 31.9 µM (inactive) | 30.4 µM (inactive) | > 10 µM (inactive) | 22.1 µM (inactive) | 34.8 µM (inactive) | 40 µM (inactive) | 42.7 µM (inactive) | 31.9 µM (inactive) | 24.5 µM (inactive) | 26.6 µM (inactive) | 27.4 µM (inactive) | 37.8 µM (inactive) | – | – | – | 44.7 µM (inactive) | –
O=c1[nH]c(=O)n(C2CC(O)C(CO)O2)cc1OS(=O)(=O)C(F)(F)F (centres undefined) | > 100 µM (inactive) | > 100 µM (inactive) | > 100 µM (inactive) | > 100 µM (inactive) | > 100 µM (inactive) | > 100 µM (inactive) | > 100 µM (inactive) | > 100 µM (inactive) | > 100 µM (inactive) | > 100 µM (inactive) | – | > 100 µM (inactive) | – | – | > 100 µM (inactive) | – | – | – | > 100 µM (inactive) | > 100 µM (inactive)
NCCCNCCCCN(CCCN)/[N+]([O-])=N\O | > 100 µM (inactive) | > 100 µM (inactive) | > 100 µM (inactive) | > 100 µM (inactive) | > 100 µM (inactive) | – | > 100 µM (inactive) | > 100 µM (inactive) | > 100 µM (inactive) | > 100 µM (inactive) | > 100 µM (inactive) | > 100 µM (inactive) | > 100 µM (inactive) | > 100 µM (inactive) | > 100 µM (inactive) | – | – | – | 29.8 µM (inactive) | 89.3 µM (inactive)
